Experimental data: US5968956A, “Substituted piperidine derivative and medicine comprising the same” (SS Pharmaceutical Co., Ltd., priority 1995, dated 1999)
Where a name gives a salt, the structure may show the parent alone.

How the values were obtained:
[1] = test system: bladder specimens enucleated from rats; experiment: Anticholinergic effect on bladder specimens enucleated from rats (contraction caused by acetylcholine); format: cell-based, rat (male S. D.); conditions: Rattus norvegicus; inhibition of contraction caused by acetylcholine (10^-5 M); Tyrode's solution 32° C.; agent applied 5 minutes before
Method: Anticholinergic effect on bladder specimens enucleated from rats:
(§1) Male S. D. rats weighing 220-450 g were exsanguinated to death to enucleate their bladders, thereby preparing vertically split specimens (3-5 mm wide by 10-15 mm long) with each triangular part removed therefrom. Each of the specimens was suspended in a Magnus bath filled with a Tyrode's solution (32° C.) aerated by a mixed gas (95% O2, 5% CO2) with a load of 0.5 g applied thereto. The response of the specimen was recorded in terms of isometric contraction through a tension transducer. After the stability of the specimen was attained, an effect on contraction caused by acetylcholine (10^-5 M) was investigated. Incidentally, agents to be tested were applied to the individual specimens in advance for 5 minutes before the test to investigate their effects.

[2] = test system: bladder specimens enucleated from rats; experiment: Calcium antagonism against bladder specimens enucleated from rats (contraction caused by calcium chloride); format: cell-based, rat (male S. D.); conditions: Rattus norvegicus; inhibition of contraction caused by 10^-3 M calcium chloride after Ca removal with 1 mM EDTA; cumulative application; corrected for spontaneous relaxation
Method: as §1
Calcium antagonism against bladder specimens enucleated from rats:
After removal of calcium ion in specimens prepared in accordance with the testing method of Test Example 1 by adding 1 mM EDTA, 10^-3 M calcium chloride was applied to the specimens. After contraction caused by calcium chloride was stable, each of agents to be tested was applied cumulatively to the specimen. Assuming that the contraction upon the first application of the test agent was 100%, a value obtained by subtracting a spontaneous relaxation rage of a specimen, to which no agent was applied, from an inhibiting rate upon the application of the agent of varied concentrations was regarded as a contraction inhibiting rate.

Row | SMILES | IC50 [1] | IC30 [2]
1 | O=C(NC1CCN(Cc2ccccc2)CC1)C(O)(c1ccccc1)C1CCCCC1 (stereo not shown) [Compound 1] | 32 nM | 2660 nM
2 | CN1CCC(NC(=O)C(O)(c2ccccc2)C2CCCCC2)CC1 (stereo not shown) [Compound 2] | 434 nM | 
3 | O=C(NC1CCN(Cc2ccccc2)CC1)C(O)(c1ccccc1)C1CC1 (stereo not shown) [Compound 3] | 27 nM | 26600 nM
4 | O=C(NC1CCN(Cc2ccccc2)CC1)C(O)(c1ccccc1)C1CCCC1 (stereo not shown) [Compound 4] | 33.6 nM | 2850 nM
5 | COc1ccc(C(O)(C(=O)NC2CCN(Cc3ccccc3)CC2)C2CCCC2)cc1 (stereo not shown) [Compound 15] | 130 nM | 
6 | CC(C)C(O)(C(=O)NC1CCN(Cc2ccccc2)CC1)c1ccccc1 (stereo not shown) [Compound 23] | 66 nM | 
7 | COc1cccc(C(O)(C(=O)NC2CCN(Cc3ccccc3)CC2)C2CCCC2)c1 (stereo not shown) [Compound 29] | 850 nM | 
8 | CC(C)C(O)(C(=O)NC1CCN(Cc2ccccc2)CC1)c1cccc(Cl)c1 (stereo not shown) [Compound 34] | 280 nM | 
9 | O=C(NC1CCN(Cc2ccccc2)CC1)C(O)(c1cccc(Cl)c1)C1CCCC1 (stereo not shown) [Compound 35] | 200 nM | 
10 | O=C(NC1CCN(Cc2ccccc2)CC1)C(O)(c1ccccn1)C1CCCC1 (stereo not shown) [Compound 49] | 6.5 nM | 
11 | Cc1ccc(C(O)(C(=O)NC2CCN(Cc3ccccc3)CC2)C(C)C)cc1 (stereo not shown) [Compound 56] | 168 nM | 
12 | CCCOC(C(=O)OC1CCN(C)CC1)(c1ccccc1)c1ccccc1 [Propiverine hydrochloride, reference compound] | 784 nM | 12100 nM
